Like-named read-outs stand apart in the source and are kept apart here.
Target: T1, hTLR7 (Homo sapiens, UniProt Q9NYK1)
T1 construct: expressed in transfected cells; host or cells: HEK-Blue hTLR7 reporter cell line
T1 sequence (Q9NYK1 27-1049): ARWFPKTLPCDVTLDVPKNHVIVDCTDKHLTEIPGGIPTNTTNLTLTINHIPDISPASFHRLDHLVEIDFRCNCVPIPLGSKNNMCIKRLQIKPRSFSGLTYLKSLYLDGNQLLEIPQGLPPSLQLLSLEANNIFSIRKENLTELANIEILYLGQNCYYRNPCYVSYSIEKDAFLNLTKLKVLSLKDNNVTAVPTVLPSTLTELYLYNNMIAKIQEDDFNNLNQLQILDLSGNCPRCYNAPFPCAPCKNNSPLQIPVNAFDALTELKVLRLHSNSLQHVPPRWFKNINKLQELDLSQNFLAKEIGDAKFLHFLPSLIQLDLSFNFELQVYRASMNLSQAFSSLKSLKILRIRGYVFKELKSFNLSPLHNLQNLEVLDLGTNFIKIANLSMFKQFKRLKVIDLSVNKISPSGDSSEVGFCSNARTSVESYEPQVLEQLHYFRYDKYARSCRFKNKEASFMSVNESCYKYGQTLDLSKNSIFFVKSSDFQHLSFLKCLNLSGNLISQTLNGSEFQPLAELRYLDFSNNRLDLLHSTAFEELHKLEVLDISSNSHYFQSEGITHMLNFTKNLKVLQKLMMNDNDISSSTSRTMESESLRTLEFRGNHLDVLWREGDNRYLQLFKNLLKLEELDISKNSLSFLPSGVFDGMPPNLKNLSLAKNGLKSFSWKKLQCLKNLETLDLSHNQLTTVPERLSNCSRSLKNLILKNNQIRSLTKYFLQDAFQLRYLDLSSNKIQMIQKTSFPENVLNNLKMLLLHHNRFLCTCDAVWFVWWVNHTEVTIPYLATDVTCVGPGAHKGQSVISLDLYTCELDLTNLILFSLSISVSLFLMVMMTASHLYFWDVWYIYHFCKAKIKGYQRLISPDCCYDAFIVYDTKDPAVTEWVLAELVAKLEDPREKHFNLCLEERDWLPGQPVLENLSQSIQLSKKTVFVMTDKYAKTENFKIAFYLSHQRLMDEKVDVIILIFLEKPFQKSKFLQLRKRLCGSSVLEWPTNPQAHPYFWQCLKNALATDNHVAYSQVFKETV
Assay: HEK-Blue hTLR7 reporter assay (NF-kB-induced SEAP, Quanti-Blue)
Type: cell-based
Details: read-out: EC50
Description: HEK-Blue™ hTLR7 cells were incubated in HEK-Blue™ Detection medium and stimulated with increasing concentrations of TLR7 or TLR8 or TLR7/8 agonists. […] The EC50 was determined from dose-response curve using Prism Software.

[1] = Table 19, TLR7, drug-linkers with PEG shielding
[2] = Core 3 compounds, assay not given

EC50 [2]	SMILES	EC50 [1]
	CCCCOc1nc(N)c2[nH]c(=O)n(Cc3ccc(CN4CCC(CCNC(=O)[C@@H](CCCCNC(=O)CCCC(=O)NCCOCCOCCOCCOCCC(=O)NC(COCCC(=O)NCCOCCOCCOCCOCCOCCOCCOCCOC)(COCCC(=O)NCCOCCOCCOCCOCCOCCOCCOCCOC)COCCC(=O)NCCOCCOCCOCCOCCOCCOCCOCCOC)NC(=O)CON)CC4)cc3)c2n1 [AXC-961, (R)-N1-(6-((2-(1-(4-((6-amino-2-butoxy-8-oxo-7,8-dihydro-9H-purin-9-yl)methyl)benzyl)piperidin-4-yl)ethyl)amino)-5-(2-(aminooxy)acetamido)-6-oxohexyl)-N5-(dPEG4)-(mPEG8)3-glutaramide]	0.856 µM
	CCCCOc1nc(N)c2[nH]c(=O)n(Cc3ccc(CN4CCC(CCNC(=O)[C@@H](CCCCNC(=O)CCOCCOCCOCCOCCOCCOCCOCCOC)NC(=O)CON)CC4)cc3)c2n1 [AXC-962, (R)—N-(2-(1-(4-((6-amino-2-butoxy-8-oxo-7,8-dihydro-9H-purin-9-yl)methyl)benzyl)piperidin-4-yl)ethyl)-2-(2-(aminooxy)acetamido)-6-(PEG8)amidohexanamide]	0.453 µM
	CCCCCC(=O)Nc1nc(OCCCC)nc2c1[nH]c(=O)n2Cc1ccc(CN2CCC(CCN)CC2)cc1 [AXC-963, N-(9-(4-((4-(2-aminoethyl)piperidin-1-yl)methyl)benzyl)-2-butoxy-8-oxo-8,9-dihydro-7H-purin-6-yl)hexanamide]	0.0194 µM
	CCCCOc1nc(NC(C)=O)c2[nH]c(=O)n(Cc3ccc(CN4CCC(CCN)CC4)cc3)c2n1 [AXC-964, N-(9-(4-((4-(2-aminoethyl)piperidin-1-yl)methyl)benzyl)-2-butoxy-8-oxo-8,9-dihydro-7H-purin-6-yl)acetamide]	0.0103 µM
	CCCCCC(=O)Nc1nc(OCCCC)nc2c1[nH]c(=O)n2Cc1ccc(CN2CCC(CCNC(=O)CON)CC2)cc1 [AXC-965, N-(9-(4-((4-(2-(2-(aminooxy)acetamido)ethyl)piperidin-1-yl)methyl)benzyl)-2-butoxy-8-oxo-8,9-dihydro-7H-purin-6-yl)hexanamide]	0.0483 µM
	CCCCOc1nc(NC(C)=O)c2[nH]c(=O)n(Cc3ccc(CN4CCC(CCNC(=O)CON)CC4)cc3)c2n1 [AXC-966, N-(2-(1-(4-((6-acetamido-2-butoxy-8-oxo-7,8-dihydro-9H-purin-9-yl)methyl)benzyl)piperidin-4-yl)ethyl)-2-(aminooxy)acetamide]	0.0655 µM
> 10 µM	CC(C)(C)OC(=O)NCCC1CCN(Cc2ccc(Cn3ccc4c5nc(N)ncc5ccc43)cc2)CC1 [AXC-968, tert-butyl (2-(1-(4-((2-amino-7H-pyrrolo[2,3-h]quinazolin-7-yl)methyl)benzyl)piperidin-4-yl)ethyl)carbamate]	
> 10 µM	NCCC1CCN(Cc2ccc(Cn3ccc4c5nc(N)ncc5ccc43)cc2)CC1 [AXC-969, 7-(4-((4-(2-aminoethyl)piperidin-1-yl)methyl)benzyl)-7H-pyrrolo[2,3-h]quinazolin-2-amine]	
> 10 µM	NOCC(=O)NCCC1CCN(Cc2ccc(Cn3ccc4c5nc(N)ncc5ccc43)cc2)CC1 [AXC-970, N-(2-(1-(4-((2-amino-7H-pyrrolo[2,3-h]quinazolin-7-yl)methyl)benzyl)piperidin-4-yl)ethyl)-2-(aminooxy)acetamide]	
	CCCCOc1nc(NC(C)=O)c2[nH]c(=O)n(Cc3ccc(CN4CCC(CCON)CC4)cc3)c2n1 [AXC-978, N-(9-(4-((4-(2-(aminooxy)ethyl)piperidin-1-yl)methyl)benzyl)-2-butoxy-8-oxo-8,9-dihydro-7H-purin-6-yl)acetamide]	0.0289 µM
	CCCCOc1nc(N)c2[nH]c(=O)n(Cc3ccc(CN4CCC(CCON)CC4)cc3)c2n1 [AXC-979, 6-amino-9-(4-((4-(2-(aminooxy)ethyl)piperidin-1-yl)methyl)benzyl)-2-butoxy-7H-purin-8(9H)-one]	0.0217 µM
	CCCCOc1nc(NC(C)=O)c2[nH]c(=O)n(Cc3ccc(CN4CCC(C5CCNCC5)CC4)cc3)c2n1 [AXC-980, N-(9-(4-(4,4′-bipiperidin-1-ylmethyl)benzyl)-2-butoxy-8-oxo-8,9-dihydro-7H-purin-6-yl)acetamide]	0.0296 µM

Source: patent US20230302150A1, “ANTIBODY-TLR AGONIST CONJUGATES, METHODS AND USES THEREOF” (Ambrx, Inc., priority 2020, published 2023)
